Measurements published in BigSolDB 2.1.

Cc1ccc(-c2cc(C(F)(F)F)nn2-c2ccc(S(N)(=O)=O)cc2)cc1
solubility (mole fraction)
Settings	293.2 K	298.2 K	303.2 K	308.2 K	313.2 K
in NMP	0.0593	0.0672	0.0776	0.0799	0.0917
in isopropanol	0.00851	0.00902	0.0156	0.0198	0.0233
